Article PMC4896453 (PLoS ONE, 2016)

Tests used:
[1] = biological target: T1, Kappa receptor (CHOhKappa) (Homo sapiens, UniProt P41145); experiment: Displacement binding of [3H]-DPN, CHOhKappa membranes; details: SEM
T1 construct: expressed in transfected cells; host or cells: CHO (Chinese Hamster Ovary)
Protocol: (§1) In the radioligand displacement binding assays, homogenization/wash buffer consisting of 50 mM Tris-HCl pH to 7.4 with KOH, for CHOhMu, CHOhDelta and CHOhKappa or additional 5 mM MgSO4 for CHOhNOP was used. Homogenisation buffer (50 mM Tris and 0.2 mM EGTA pH 7.4 with NaOH) was used in GTPγ[^35S] assays. Membranes were centrifuged at 20374 g for 10 min at 4°C. This process was repeated at least three times. The resulting pellet was resuspended in an appropriate amount of the necessary buffer and the protein concentration was determined by Lowry assay.
(§2) Samples were incubated for 1 hr at room temperature and reactions were terminated by vacuum filtration, onto PEI-soaked Whatman GF/B filters, using a Brandel harvester.

NOP receptor (CHOhNOP) [2] = biological target: T2, NOP receptor (CHOhNOP) (Homo sapiens, UniProt P41146); experiment: GTPγ[35S] binding, CHOhNOP membranes; type: biochemical
T2 construct: expressed in transfected cells; host or cells: CHO (Chinese Hamster Ovary)

NOP receptor (CHOhNOP) [3] = biological target: T2, NOP receptor (CHOhNOP); experiment: Displacement binding of [3H]-UFP-101, CHOhNOP membranes
Protocol: as §1, §2

human Mu receptor = biological target: T3, human Mu receptor (Homo sapiens, UniProt P35372); experiment: Calcium mobilisation, CHO cells with Mu and Gαqi5; type: cell-based
T3 construct: expressed in transfected cells; host or cells: CHO

[4] = biological target: T4, human Mu receptor (Mu-RLuc/Gβ1-RGFP) (Homo sapiens, UniProt P35372); experiment: BRET Mu-RLuc/Gβ1-RGFP interaction, SH-SY5Y membranes; type: biochemical
T4 construct: expressed in transfected cells; host or cells: SH-SY5Y (retroviral expression; membranes used)

[5] = biological target: T5, Delta receptor (CHOhDelta) (Homo sapiens, UniProt P41143); experiment: GTPγ[35S] binding, CHOhDelta membranes; type: biochemical
T5 construct: expressed in transfected cells; host or cells: CHO (Chinese Hamster Ovary)

[6] = biological target: T5, Delta receptor (CHOhDelta); experiment: Displacement binding of [3H]-DPN, CHOhDelta membranes; details: SEM
Protocol: as §1, §2

human NOP receptor = biological target: T6, human NOP receptor (Homo sapiens, UniProt P41146); experiment: Calcium mobilisation, CHO cells with NOP and Gαqi5; type: cell-based
T6 construct: expressed in transfected cells; host or cells: CHO

[7] = biological target: T7, human Mu receptor (Mu-RLuc/β-arrestin 2-RGFP) (Homo sapiens, UniProt P35372); experiment: BRET Mu-RLuc/β-arrestin 2-RGFP interaction, SH-SY5Y cells; type: cell-based
T7 construct: expressed in transfected cells; host or cells: SH-SY5Y (retroviral expression; whole cells)

Mu receptor (CHOhMu) [8] = biological target: T8, Mu receptor (CHOhMu) (Homo sapiens, UniProt P35372); experiment: Displacement binding of [3H]-DPN, CHOhMu membranes; details: SEM
T8 construct: expressed in transfected cells; host or cells: CHO (Chinese Hamster Ovary)
Protocol: as §1, §2

[9] = biological target: human NOP receptor (NOP-RLuc/Gβ1-RGFP) (Homo sapiens, UniProt P41146); experiment: biochemical; type: biochemical
[10] = biological target: T9, human NOP receptor (NOP-RLuc/β-arrestin 2-RGFP) (Homo sapiens, UniProt P41146); experiment: BRET NOP-RLuc/β-arrestin 2-RGFP interaction, HEK-293 cells; type: cell-based
T9 construct: expressed in transfected cells; host or cells: HEK-293 (retroviral expression; whole cells)

Mu receptor (CHOhMu) [11] = biological target: T8, Mu receptor (CHOhMu); experiment: GTPγ[35S] binding, CHOhMu membranes; type: biochemical
[12] = biological target: T1, Kappa receptor (CHOhKappa); experiment: GTPγ[35S] binding, CHOhKappa membranes; type: biochemical
rats = experiment: Rota-rod test after intrathecal infusion; type: in vivo, rat; details: same range of doses (0.1–1 nmol), data not shown
Protocol: For all the experiments described below, male Sprague-Dawley rats (Harlan, Varese, Italy), weighing approximately 280-300g at the beginning of the experimental procedure, were used. Animals were housed in CeSAL (Centro Stabulazione Animali da Laboratorio, University of Florence) and used at least one week after their arrival. One rat was housed per cage (size 26x41 cm); animals were fed with standard laboratory diet and tap water ad libitum, and kept at 23±1°C with a 12 h light/dark cycle, light at 7 a.m. […] All animals were monitored daily using a scoring system (based on: Appearance, Food and Water Intake, Clinical Signs, Natural Behaviour and Provoked Behaviour. Maximum score is 20 and animals reaching 10 are euthanized. In the experiments reported here no animals reached this score and none died before the end of the experiment) and at the end of the experiment were euthanized by CO2 overdose. […]
Rota-rod apparatus (Ugo Basile, Varese, Italy) consisted of a base platform and a rotating rod with a diameter of 6 cm and a non-slippery surface. […] The integrity of motor coordination was assessed on the basis of the number of falls from the rod in 60s measured 15, 30, 45, 60, 90, 120 and 180 min after treatments.

T2 sequence (P41146 whole entry): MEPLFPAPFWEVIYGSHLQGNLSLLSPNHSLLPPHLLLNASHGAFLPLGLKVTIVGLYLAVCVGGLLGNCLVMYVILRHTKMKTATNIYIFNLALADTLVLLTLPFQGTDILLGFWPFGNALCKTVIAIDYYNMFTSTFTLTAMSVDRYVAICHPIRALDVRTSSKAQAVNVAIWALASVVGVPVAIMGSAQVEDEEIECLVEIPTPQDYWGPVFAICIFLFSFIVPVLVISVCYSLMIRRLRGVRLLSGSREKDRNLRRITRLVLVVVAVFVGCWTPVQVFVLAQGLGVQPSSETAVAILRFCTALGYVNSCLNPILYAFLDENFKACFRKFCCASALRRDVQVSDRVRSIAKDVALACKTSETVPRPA
T1 sequence (P41145 whole entry): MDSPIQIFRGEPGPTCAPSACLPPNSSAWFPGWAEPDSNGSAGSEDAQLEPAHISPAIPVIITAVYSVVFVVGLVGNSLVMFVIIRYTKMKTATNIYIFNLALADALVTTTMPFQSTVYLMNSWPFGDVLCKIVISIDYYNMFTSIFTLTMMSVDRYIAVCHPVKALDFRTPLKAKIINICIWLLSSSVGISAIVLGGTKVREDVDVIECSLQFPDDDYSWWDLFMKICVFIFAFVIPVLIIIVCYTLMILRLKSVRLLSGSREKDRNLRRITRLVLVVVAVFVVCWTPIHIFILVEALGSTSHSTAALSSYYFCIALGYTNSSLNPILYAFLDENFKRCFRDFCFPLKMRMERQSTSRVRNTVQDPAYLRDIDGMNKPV
T3 sequence (P35372 whole entry): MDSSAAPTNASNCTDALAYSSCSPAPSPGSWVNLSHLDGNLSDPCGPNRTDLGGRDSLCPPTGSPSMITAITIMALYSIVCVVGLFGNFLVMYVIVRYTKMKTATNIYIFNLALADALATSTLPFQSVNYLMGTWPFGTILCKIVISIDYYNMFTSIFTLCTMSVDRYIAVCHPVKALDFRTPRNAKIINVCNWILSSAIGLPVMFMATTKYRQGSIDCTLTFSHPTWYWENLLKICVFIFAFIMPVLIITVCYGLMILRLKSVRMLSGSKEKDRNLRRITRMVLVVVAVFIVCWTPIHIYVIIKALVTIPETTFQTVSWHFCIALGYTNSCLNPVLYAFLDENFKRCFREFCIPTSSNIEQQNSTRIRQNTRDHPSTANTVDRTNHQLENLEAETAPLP
T8 sequence (P35372 whole entry): as above
T5 sequence (P41143 whole entry): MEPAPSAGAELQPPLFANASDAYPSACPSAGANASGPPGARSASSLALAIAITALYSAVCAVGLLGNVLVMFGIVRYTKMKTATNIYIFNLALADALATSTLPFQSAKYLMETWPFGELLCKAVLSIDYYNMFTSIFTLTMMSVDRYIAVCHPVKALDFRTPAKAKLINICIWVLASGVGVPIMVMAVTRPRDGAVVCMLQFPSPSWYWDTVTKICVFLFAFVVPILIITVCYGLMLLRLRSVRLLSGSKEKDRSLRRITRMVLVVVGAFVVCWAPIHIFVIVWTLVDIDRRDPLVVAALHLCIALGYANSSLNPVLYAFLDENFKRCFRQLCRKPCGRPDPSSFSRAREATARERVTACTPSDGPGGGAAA
T6 sequence (P41146 whole entry): as the sequence (P41146 whole entry) above
T9 sequence (P41146+P27652 fused): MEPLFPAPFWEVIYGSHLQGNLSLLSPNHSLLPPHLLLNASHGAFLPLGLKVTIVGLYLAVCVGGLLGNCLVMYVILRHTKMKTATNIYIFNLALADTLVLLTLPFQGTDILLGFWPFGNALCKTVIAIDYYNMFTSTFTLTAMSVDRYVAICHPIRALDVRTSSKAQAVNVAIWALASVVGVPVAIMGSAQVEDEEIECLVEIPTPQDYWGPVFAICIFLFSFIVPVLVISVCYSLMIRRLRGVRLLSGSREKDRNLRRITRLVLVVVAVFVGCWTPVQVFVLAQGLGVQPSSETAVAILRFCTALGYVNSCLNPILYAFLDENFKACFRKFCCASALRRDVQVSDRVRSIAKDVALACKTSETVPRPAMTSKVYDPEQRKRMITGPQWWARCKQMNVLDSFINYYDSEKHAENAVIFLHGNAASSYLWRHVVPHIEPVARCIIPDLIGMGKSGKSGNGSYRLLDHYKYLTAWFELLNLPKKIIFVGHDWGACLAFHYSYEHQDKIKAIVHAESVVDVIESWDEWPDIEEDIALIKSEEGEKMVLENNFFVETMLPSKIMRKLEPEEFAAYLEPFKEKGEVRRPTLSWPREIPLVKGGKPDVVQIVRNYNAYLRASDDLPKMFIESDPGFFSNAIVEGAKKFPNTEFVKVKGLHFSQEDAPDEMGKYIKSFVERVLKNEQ
T9 sequence (P32121 whole entry partner): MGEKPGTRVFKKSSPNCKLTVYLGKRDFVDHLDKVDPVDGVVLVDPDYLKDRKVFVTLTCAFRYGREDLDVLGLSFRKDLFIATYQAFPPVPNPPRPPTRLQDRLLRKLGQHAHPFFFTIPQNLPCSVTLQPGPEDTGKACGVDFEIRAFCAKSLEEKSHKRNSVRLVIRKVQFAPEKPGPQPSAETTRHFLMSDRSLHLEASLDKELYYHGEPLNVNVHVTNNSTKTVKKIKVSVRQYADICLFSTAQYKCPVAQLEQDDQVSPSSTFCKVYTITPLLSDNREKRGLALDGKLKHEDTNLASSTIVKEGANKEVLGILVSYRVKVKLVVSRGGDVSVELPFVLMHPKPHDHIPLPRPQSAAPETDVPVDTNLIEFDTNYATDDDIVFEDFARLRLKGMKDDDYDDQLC
T4 sequence (P35372 whole entry, looked up): as the sequence (P35372 whole entry) above
Sequence of human NOP receptor (NOP-RLuc/Gβ1-RGFP) (P41146 whole entry, looked up): as the sequence (P41146 whole entry) above
T7 sequence (P35372+P27652 fused): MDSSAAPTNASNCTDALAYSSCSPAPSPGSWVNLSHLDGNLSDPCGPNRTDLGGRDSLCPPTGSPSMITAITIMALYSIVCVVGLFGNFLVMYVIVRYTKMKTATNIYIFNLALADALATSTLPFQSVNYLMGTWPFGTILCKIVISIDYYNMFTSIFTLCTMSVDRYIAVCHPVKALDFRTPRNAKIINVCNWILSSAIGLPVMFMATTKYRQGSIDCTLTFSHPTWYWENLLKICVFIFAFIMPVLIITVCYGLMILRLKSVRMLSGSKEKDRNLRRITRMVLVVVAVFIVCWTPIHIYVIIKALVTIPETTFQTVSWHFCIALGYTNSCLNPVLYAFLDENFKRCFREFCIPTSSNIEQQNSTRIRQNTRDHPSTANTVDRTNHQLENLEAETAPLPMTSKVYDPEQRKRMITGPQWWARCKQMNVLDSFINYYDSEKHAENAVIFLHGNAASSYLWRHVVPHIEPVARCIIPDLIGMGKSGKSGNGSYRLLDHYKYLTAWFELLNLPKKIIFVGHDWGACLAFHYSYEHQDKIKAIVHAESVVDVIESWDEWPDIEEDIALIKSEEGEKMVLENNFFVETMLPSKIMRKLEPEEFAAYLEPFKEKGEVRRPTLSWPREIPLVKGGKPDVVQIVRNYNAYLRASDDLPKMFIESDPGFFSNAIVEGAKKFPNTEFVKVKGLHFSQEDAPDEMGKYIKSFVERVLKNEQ
T7 sequence (P32121 whole entry partner): as the sequence (P32121 whole entry partner) above

SMILES: CC(C)C[C@H](NC(=O)[C@H](CCCCN)NC(=O)[C@H](CCCNC(=N)N)NC(=O)[C@H](C)NC(=O)[C@H](CO)NC(=O)[C@H](CCCCN)NC(=O)[C@H](CCCNC(=N)N)NC(=O)[C@H](C)NC(=O)CNC(=O)[C@@H](NC(=O)[C@H](Cc1ccccc1)NC(=O)CNC(=O)CNC(=O)[C@@H](N)Cc1ccccc1)[C@@H](C)O)C(=O)N[C@@H](C)C(=O)N[C@@H](CC(N)=O)C(=O)N[C@@H](CCC(N)=O)C(=O)N[C@@H](CSC1CC(=O)N(CCCC(=O)NCCCC[C@H](NC(=O)[C@H](CO)NC(=O)[C@@H]2CCCN2C(=O)[C@H](Cc2ccc(O)cc2)NC(=O)CNC(=O)[C@H](Cc2ccccc2)NC(=O)[C@@H](C)NC(=O)[C@@H](N)Cc2ccc(O)cc2)C(N)=O)C1=O)C(N)=O (stereo partly drawn) [DeNo]
- Ki [1]: 45.7 nM
- EC50 (NOP receptor (CHOhNOP) [2]): 0.316 nM
- Ki (NOP receptor (CHOhNOP) [3]; SEM): 0.0603 nM
- NOP selectivity over Mu in binding (NOP receptor (CHOhNOP) [3]; from pKi values): ~ 5 fold
- EC50 (human Mu receptor): 67.6 nM
- Emax (human Mu receptor; calcium mobilisation, % over basal fluorescence, CHO cells with human Mu and Gαqi5, at least 3 experiments in duplicate, SEM): 209 ± 15%
- EC50 [4]: 9.77 nM
- EC50 [5]: 166 nM
- Ki [6]: 7.59 nM
- EC50 (human NOP receptor): 0.204 nM
- Emax (human NOP receptor; calcium mobilisation, % over basal fluorescence, CHO cells with human NOP and Gαqi5, at least 3 experiments in duplicate, SEM): 244 ± 6%
- EC50 [7]: 437 nM
- Ki (Mu receptor (CHOhMu) [8]): 0.282 nM
- EC50 [9]: 0.955 nM
- EC50 [10]: 6.46 nM
- EC50 (Mu receptor (CHOhMu) [11]): 17 nM
- EC50 [12]: 1200 nM
- animal performance in the rotarod test (rats): impaired animal performance in the rotarod test
